According to patent US10238641B2, “Materials and methods for diagnosis, prevention and/or treatment of stress disorders and conditions associated with A-beta peptide aggregation” (The United States of America as represented by the …, priority 2008, dated 2019):

How the values were obtained:
Aβ1-42 peptide = target: T1, Aβ1-42 peptide (Homo sapiens, UniProt P05067); assay: Aβ oligomerization, Western blot and dot-blot immunoassays (6E10, A11 antibodies); type: biochemical
T1 construct: Aβ1-42 peptide was obtained from American Peptide; purchased American Peptide (Sunnyvale, Calif., USA)
T1 sequence (P05067 672-713 limits assumed): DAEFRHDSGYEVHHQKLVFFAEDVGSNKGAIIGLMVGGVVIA
Description: Aβ1-42 peptide was obtained from American Peptide (Sunnyvale, Calif., USA). To obtain Aβ1-42 oligomer solutions, we used a previously described protocol that results in solutions containing stable oligomers, but not fibrils for several days (Necula et al. (2007)). The lyophilized peptide was dissolved in 1 volume of 1 mM NaOH and then diluted in phosphate-buffered saline (PBS) pH 7.4 to the desired concentrations.
For the analysis of the inhibition of Aβ1-42 oligomerization/aggregation reaction, we incubated Aβ (100 μM, pH 7.4) prepared in the absence or presence of ascending concentrations of cotinine (100, 200 and 500 μM) for 7 days at 25° C. and analyzed on days 2, 5, 6 and 7. Aβ oligomerization was analyzed by Western blot and dot-blot immunoassays using antibody 6E10, which preferentially recognizes the monomeric form of Aβ and the A11 antibody that specifically recognizes the oligomeric form of the peptide but not Aβ monomers, protofibrils or fibrils.
The western blot analysis was performed as described before (Necula et al. (2007)). 10 μl-aliquots of each oligomerization reaction containing Aβ alone or Aβ plus cotinine were mixed with 5×SDS sample buffer and loaded in a 4-20% Tris-HCl gel and analyzed by Western blot using the 6E10 antibody.
The dot-blot analysis was performed as described (Necula et al. (2007)). 4-8 μl of the oligomerization mixture was applied onto nitrocellulose membranes and allowed to dry, after which the membranes were blocked for 1 h at room temperature with 10% skim milk in TBS containing 0.05% Tween 20 (TBS-T). […] After being washed with TBS-T, membranes were incubated with horseradish peroxidase-conjugated secondary antibody (1:5000) for 1 h, and visualized using enhanced chemiluminescence (Dura ECL detection kit, Pharmacia Biotech, Piscataway, N.J., USA), scanned on the Kodak Image Station 440CF, and analyzed using Molecular Imaging Software version 4.0 (Rochester, N.Y., USA) and NIH ImageJ software. The Aβ solutions for each particular day were analyzed in the same membrane and developed simultaneously. […]

anxiety in mice = assay: Elevated plus maze, basal anxiety; type: in vivo; settings: cotinine 1 and 5 mg/kg
From the text: Mice were placed in an EPM (Stoelting, Wood Dale, Ill., USA) made of grey plexiglas, consisting of two opposite-facing open arms, two opposite-facing closed arms, and a central area. Mice were placed at the end of one of the open arms facing toward the central area before a 5-minute test session was begun. We recorded the number of entries into the open and closed arms and assessed the exploratory behavior of the mice. We utilized a video tracking software that measures movement in each section of the maze in order to determine the time the mice were mobile exploring the different arms. Statistical significance was evaluated using One-way ANOVA with Tukey posttest. ns, not significant.
The elevated plus maze (EPM) is considered the first choice test for screening anxiolytic effects of drugs. This test is based on the fact that higher anxiety levels will decrease the drive to explore a new environment as a way to avoid a potentially dangerous areas (open arms), and will, therefore, cause the mice to stay immobile in the closed arms for a longer period of time.

Aβ = Aβ (Homo sapiens, UniProt P05067); assay: Binding of cotinine to Aβ in vitro
Sequence of Aβ (P05067 672-713 limits assumed): as above

CN1C(=O)CC[C@H]1c1cccnc1 [cotinine]
levels of Aβ monomers (Western blot, 6E10) (Aβ1-42 peptide; 100 μM Aβ1-42, cotinine 100, 200, 500 μM, 5 and 7 days at 25° C.): increased the levels of Aβ monomers | concentration of Aβ oligomers (A11 dot-blot) (Aβ1-42 peptide; 100 μM Aβ1-42, cotinine 100, 200, 500 μM, days 2 and 6 at RT): decreased the concentration of Aβ oligomers | 6E10 immunoreactivity (dot-blot) (Aβ1-42 peptide; 100 μM Aβ1-42, increasing cotinine, days 2 and 6 at RT): higher immunoreactivity for the 6E10 antibody | time spent on open arms (EPM, resting conditions) (anxiety in mice; p=0.4471): did not change | time spent on closed arms (EPM, resting conditions) (anxiety in mice; p=0.6186): did not change | time spent exploring the maze (EPM, resting conditions) (anxiety in mice; p=0.8831): did not change | binding to Aβ (Aβ): high affinity
